Source: patent US7781486B2, “Punctual stimulation therapy” (priority 2003, dated 2010)

Test system: pain (VAS scale) in patients
Experiment: Punctual stimulation on both ears with simultaneous intravenous infusion of D-phenylalanine solution; pain reduction in patient case reports
Format: in vivo, human
Excerpt: Very good relief of existing pain can be achieved by means of punctual stimulation, in which electrical current is supplied by way of needle electrodes stuck into the skin, whereby these needle electrodes are placed, in particular, at specifically sensitive points of an outer ear, in the case of the predominant number of patients treated with such stimulation.
On each of three consecutive days, punctual stimulation on both ears, with simultaneous intravenous infusion of a substance that inhibits the enzymatic decomposition of endogenous opioid neuropeptides, was carried out. Afterwards, punctual stimulation was carried out without infusion for the four subsequent days, by means of a small device worn by the patient, to supply power to needle electrodes that are stuck into the skin on one ear. This sequence was repeated several times, in coordination with the patient's need for pain reduction. In the case of punctual stimulations carried out with simultaneous infusion, electrical current was supplied to needle electrodes that were stuck into sensitive points of both ears. A sterile aqueous solution containing 20 g/L D-phenylalanine was administered as the infusion, whereby a total amount of D-phenylalanine of 200 to 300 mg/kilogram of body weight was administered during every treatment procedure. On the first days of the three-day sequences, in each instance, the infusion was started at least 10 min before the punctual stimulation. The flow velocity of the infusion was selected in accordance with an infusion period of 2.5 to 5 h.
Admission to clinic. Punctual stimulation carried out without infusion, by means of power supply to needle electrodes that are stuck into one ear, over a period of four days. Pain reduction achieved in this manner. Subsequently, punctual stimulation by means of power supply to needle electrodes that are stuck in both ears, and simultaneous intravenous infusion of an aqueous solution containing 15 g/L D-phenylalanine, in an amount of 250 mg/kg of body weight. An anti-emetic was also added to the solution. Duration of infusion about 3 h. During the course of this treatment, pain reduction all the way to freedom from pain (VAS-0). After 8 days, discharge from the clinic—free of symptoms, no vomiting, no nausea, no medication. At discharge, application of a device for punctual stimulation on one ear, without infusion, as mentioned above, for four days. Freedom from symptoms remains maintained during this stimulation period. On the following days, slight pain in the abdominal region, in individual instances. Three days after completion of the prior stimulation, again application of a device for a stimulation lasting four days—immediately clear relief. After this stimulation, again increase in pain, but tolerable without medication. After another three days, again application of such a device—free of symptoms. After removal of the device, again slight increase in pain, whereby the number of pain attacks and their intensity has decreased in comparison with previously. After several days, again a device applied for stimulation on one ear, lasting for four days—free of symptoms. After removal of the device, slow increase in pain to VAS-3-4. Ten days after removal of the device, again punctual stimulation on two ears, with intravenous infusion, as explained above. Pain reduction to VAS-0. […] Subsequently slow increase in pain up to maximum VAS-4. Two weeks after punctual stimulation on both ears, again application of a device for four days of stimulation on one ear without infusion—free of symptoms during stimulation. Another two weeks later, again application of such a device—free of symptoms during stimulation. Afterwards, more severe pain again in paraumbilical region, in individual instances. Again, application of a device as mentioned—free from symptoms during the stimulation. Later, sudden increase in pain. Therefore one week later, again punctual stimulation on both ears, with infusion. VAS-0. […]

**Q.** Which “dulling of sensory system” value (after first treatment, 20 g/L, 300 mg/kg i.v.) does the source give for `N[C@H](Cc1ccccc1)C(=O)O` [D-phenylalanine] here?
**A.** without dulling of the sensory system

**Q.** And the “duration of complete freedom from pain after treatment” value (after second treatment with infusion)?
**A.** 48 h

**Q.** What about the “maximum pain (VAS) on slow increase after treatment” value (after the 48 h following second treatment with infusion) of the same compound?
**A.** ≤ 4 VAS

**Q.** And the “pain (VAS) on increase after the pain-free period” value (after three pain-free days)?
**A.** 4 VAS

**Q.** What about the pain after treatment (ankle pain VAS-10, back pain, first treatment: 15 g/L, 250 mg/kg i.v., 3 h, stimulation on both ears) of the same compound?
**A.** complete freedom from pain

**Q.** And the “pain reduction during each treatment procedure” value (carcinoma with generalized metastases, 20 g/L D-phenylalanine i.v., 200 to 300 mg/kg, infusion 2.5 to 5 h, with punctual stimulation on both ears, three consecutive days)?
**A.** pain reduction, which went all the way to freedom from pain

**Q.** What about the “pain (VAS) during treatment” value (lumbar ischialgia, from VAS 9.5, 20 g/L, 300 mg/kg i.v., 3 h, stimulation on both ears) of the same compound?
**A.** 0 VAS

**Q.** And the pain after treatment (second treatment on both ears with infusion)?
**A.** Complete freedom from pain

**Q.** What about the pain after treatment (second treatment with infusion, from VAS-6) of the same compound?
**A.** complete freedom from pain achieved
